Data on 1 compound can be found in article PMC9760738, “Pharmacokinetics, absorption, distribution, metabolism and excretion of the MEK inhibitor zapnometinib in rats” (Frontiers in Pharmacology, 2022).

Details of data set [1]: method as in Lorusso et al., 2005. To be noted: acid metabolite after CI-1040 dosing in patients; ref Lorusso et al., 2005; cited from earlier work.
For data set [2] the following is noted: from other nonclinical studies; cited from earlier work.
Data set [3] is described as follows: Plasma protein binding assay, dog plasma. It is filed as in vitro ADME. Particulars: data not shown.

`O=C(O)c1ccc(F)c(F)c1Nc1ccc(I)cc1Cl` [zapnometinib, 2-(2-Chloro-4-iodophenylamino)-3,4-difluorobenzoic acid]: the “Plasma concentrations relative to those of CI-1040” value in data set [1] is “approximately 30 fold”. Further, the “No observed adverse effect level” value in data set [2] is recorded as 100 mg/kg. In data set [3], the Protein binding result was “high protein binding” and the Unbound fraction result is given as “very low”.
